Patent publication US10953027B2, “Active agents and methods of their use for the treatment of metabolic disorders and nonalcoholic fatty liver disease” (Flagship Pioneering Innovations V, Inc., priority 2018, dated 2021)

Tests used:
[1] = Assay 2. Stability in Simulated Intestinal Fluid (SIF); assay type: in vitro ADME; details: 1 μM, 37° C., SIF pH 6.7 with pancreatin
How it was run: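 Acylated compounds at 1 μM (from 1 mM DMSO stock) in fresh SIF: FaSSIF with pancreatin in pH 6.7 phosphate buffer, agitated at 37 °C. Aliquots from T0 onward quenched with 1 volume acetonitrile; LC/MS gives degradation rates.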

[2] = tested on: Male FATZO mice; assay: In vivo FATZO DM2/obesity study (Example 5); details: in HFD ad libitum, after 28 days; blood glucose 0-120 minutes
Experimental: Male FATZO mice (Crown Bio) of 11-12 weeks old were selected for Diabetes Mellitus Type 2 (DM2) and obesity study. Mice were randomized into 9 groups based on body weight and blood glucose level as shown below. Compounds were administered in high fat diet (HFD: D12492) and provided to mice ad libitum until study termination. Body weight was recorded at the baseline and then twice weekly thereafter. Blood glucose level was measured at 0, 15, 30, 60, 90, and 120 minutes at the end of the study.

[3] = Assay 1. Stability in Simulated Gastric Fluid (SGF); assay type: in vitro ADME; details: 1 μM, 37° C., SGF pH 1.6 with pepsin
How it was run: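 Acylated compounds at a final 1 μM (diluted from 1 mM DMSO stock) were incubated at 37 °C in SGF of pH 1.6 NaCl buffer with FaSSIF powder and 0.1 mg/mL pepsin. Aliquots were quenched with acetonitrile at T0 and regular intervals, and degradation rates were determined by LC/MS.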

[4] = tested on: HFD-fed C57BL/6 mice; assay: In vivo evaluation in HFD-fed C57BL/6 mice (Example 3); details: 6% in HFD ad libitum, 8 week
Experimental: Animals were allowed free access to food and drinking water for the entire 8 week study. Animals were weighed on a weekly basis, and food and drinking water consumption monitored. Plasma and stool samples were collected at the beginning of the study, mid-study, and day of termination. These samples were used for the measurement of the disease makers.
Disease markers were also assessed in liver tissues collected from mice as follows. Liver tissues from mice were collected, fixed by immersion in 10% neutral buffered formalin. Fixed tissue specimens were sent to a histological processing laboratory (Premier Laboratory, Longmont, Colo.), where they were paraffin embedded, sectioned (approximately 4 μm), mounted, and stained with hematoxylin and eosin (H&E) using standard methods.
Liver sections (2) for each animal were scored from a scan of the H&E-stained slide for inflammation, steatosis (macrovesicular vacuolation) and ballooning ([…] vacuolation) using a modified grading scale based on human biopsy scoring (Brunt et al., Am J Clin Pathol, 128:837-47, 2007). Inflammation was scored 0=no inflammation, 1=minimal (1-3 foci of scattered (lobar) inflammatory cells), 2=mild (3 to 10 scattered foci of inflammatory cells with or without portal/periportal inflammation), 3=moderate (>10 scattered (lobar) foci of inflammatory cells and/or marked portal/periportal inflammation. Steatosis was graded (as in Brunt et al., Am J Clin Pathol, 128:837-47, 2007) as follows: 0=no steatosis, grade 1: ≤33%; grade 2: >33%, <66%; 3: ≥66%. Ballooning was scored as follows: 0=no ballooning, 1=rare/few, and 2=many hepatocytes with microvesicular vacuolation.

[5] = Assay 3. Fecal Incubation Stability; assay type: in vitro ADME; details: 1 or 10 μM, human fecal slurry, anaerobic

Row | Compound | Assay 2 (SIF) (% @ Remaining 4 hours) [1] | OGTT (AUC) [2] | Assay 1 (SGF) (% Remaining @ 1 hours) [3] | ballooning score (FIG. 4) [4] | glucose tolerance (FIG. 2) [4] | histological analysis of the livers: steatosis (FIGS. 5A-5G) [4] | percentage change in weight (FIG. 1) [4] | steatosis score (FIG. 3) [4] | Assay 3 (% Remaining at 24 h) [5]
1 | CC(=O)Oc1cc(OC(C)=O)c2c(c1)O[C@H](c1cc(OC(C)=O)c(OC(C)=O)c(OC(C)=O)c1)[C@H](OC(=O)c1cc(OC(C)=O)c(OC(C)=O)c(OC(C)=O)c1)C2 [Compound 4, [(2R,3R)-5,7-diacetoxy-2-(3,4,5-triacetoxyphenyl)chroman-3-yl] 3,4,5-triacetoxybenzoate] | A (A: <25% of the tested compound remaining) | 59443 | C (C: >75% of the tested compound remaining) | lower ballooning score than the animals fed a high fat diet only | exceeded that of animals in the HFD+rosiglitazone | significantly lower steatosis | underwent weight loss | lower steatosis score than the animals fed high fat diet only | A (A: <25% of the tested compound remaining)
2 | CC(=O)Oc1cc(OC(C)=O)c2c(=O)c(OC(C)=O)c(-c3ccc(OC(C)=O)c(OC(C)=O)c3)oc2c1 [Compound 14, [2-acetoxy-4-(3,5,7-triacetoxy-4-oxo-chromen-2-yl)phenyl] acetate] | A (A: <25% of the tested compound remaining) | 65323 | C (C: >75% of the tested compound remaining) |  |  |  |  |  | 
3 | CC(=O)O[C@H]1OC[C@H](OC(C)=O)[C@H](OC(C)=O)[C@H]1OC(C)=O [Compound 53, (2R,3R,4S,5S)-tetrahydro-2H-pyran-2,3,4,5-tetrayl Tetraacetate] | A (A: <25% of the tested compound remaining) |  | C (C: >75% of the tested compound remaining) |  |  |  |  |  | A (A: <25% of the tested compound remaining)
